Experiments:
Design in all cases: key: −: no saccharide-transferred product was detected through transfer reaction to acceptor; ±: a saccharide-transferred product was detected in an amount less than one percent through transfer reaction to acceptor; +: a saccharide-transferred product was detected in an amount over one percent but less than 10% through transfer reaction to acceptor; ++: a saccharide-transferred product was detected in an amount over ten percent through transfer reaction to acceptor
[1] = test system: α-isomaltosylglucosaccharide-forming enzyme; experiment: Transfer-acceptor specificity, enzyme of C9 strain; format: biochemical, Bacillus globisporus C9 strain; details: acceptor 1.6%, PINE-DEX #100 donor 4%, one unit/g donor, 30° C., pH 6.0, 24 hours
Method: (§1) Using various saccharides, it was tested whether the saccharides were used as transferring-acceptors for α-isomaltosylglucosaccharide-forming enzyme. A solution of D-glucose, D-xylose, L-xylose, D-galactose, D-fructose, D-mannose, D-arabinose, D-fucose, D-psicose, L-sorbose, L-rhamnose, methyl-α-glucopyranoside, methyl-β-glucopyranoside, N-acetyl-glucosamine, sorbitol, α,α-trehalose, isomaltose, isomaltotriose, cellobiose, gentibiose, glycerol, maltitol, lactose, sucrose, α-cyclodextrin, β-cyclodextrin, γ-cyclodextrin, or L-ascorbic acid was prepared. To each solution with a saccharide concentration of 1.6% was added “PINE-DEX #100”, a partial starch hydrolyzate, as a saccharide donor, to give a concentration of 4%, and admixed with one unit/g saccharide donor, d.s.b., of either of purified specimens of α-isomaltosylglucosaccharide-forming enzyme from Bacillus globisporus C9 strain obtained by the method in Experiment 4-2, Bacillus globisporus C11 strain obtained by the method in Experiment 7-2, Bacillus globisporus N75 strain obtained by the method in Experiment 11-2, or Arthrobacter globiformis A19 strain obtained by the method in Experiment 15-2, and incubated at 30° C. and pH 6.0 for 24 hours, except that pH 8.4 was used for the enzyme from Arthrobacter globiformis A19 strain. The reaction mixtures of the post-enzymatic reactions were analyzed on gas chromatography (abbreviated as “GLC” hereinafter) for monosaccharides and disaccharides as acceptors, and on HPLC for trisaccharides as acceptors to confirm whether these saccharides could be used as the transfer acceptors of the above enzymes. In the case of performing GLC, the following apparatuses and conditions were used: GLC apparatus, “GC-16A” commercialized by Shimadzu Corporation, Tokyo, Japan; column, a stainless-steel column, 3 mm in diameter and 2 m in length, packed with 2% “SILICONE OV-17/CHROMOSOLV W”, commercialized by GL Sciences Inc., Tokyo, Japan; carrier gas, nitrogen gas at a flow rate of 40 ml/min under temperature conditions of increasing from 160° C. to 320° C. at an increasing temperature rate of 7.5° C./min; and detection, a hydrogen flame ionization detector. In the case of performing HPLC analysis, the following apparatuses and conditions were used: HPLC apparatus, “CCPD” commercialized by Tosoh Corporation, Tokyo, Japan; column, “ODS-AQ-303” commercialized by YMC Co., Ltd., Tokyo, Japan; eluent, water at a flow rate of 0.5 ml/min; and detection, a differential refractometer.

[2] = test system: α-isomaltosylglucosaccharide-forming enzyme; experiment: Transfer-acceptor specificity, enzyme of C11 strain; format: biochemical, Bacillus globisporus C11 strain; details: acceptor 1.6%, PINE-DEX #100 donor 4%, one unit/g donor, 30° C., pH 6.0, 24 hours
Method: as §1

[3] = test system: α-isomaltosylglucosaccharide-forming enzyme; experiment: Transfer-acceptor specificity, enzyme of N75 strain; format: biochemical, Bacillus globisporus N75 strain; details: acceptor 1.6%, PINE-DEX #100 donor 4%, one unit/g donor, 30° C., pH 6.0, 24 hours
Method: as §1

[4] = test system: α-isomaltosylglucosaccharide-forming enzyme; experiment: Transfer-acceptor specificity, enzyme of A19 strain; format: biochemical, Arthrobacter globiformis A19 strain; details: acceptor 1.6%, PINE-DEX #100 donor 4%, one unit/g donor, 30° C., pH 8.4, 24 hours
Method: as §1

SMILES | Product of transferring reaction, Enzyme of C9 strain [1] | Product of transferring reaction, Enzyme of C11 strain [2] | Product of transferring reaction, Enzyme of N75 strain [3] | Product of transferring reaction, Enzyme of A19 strain [4]
O=C(CO)[C@H](O)[C@H](O)[C@H](O)CO [D-Psicose, D-psicose] | + (a saccharide-transferred product was detected in an amount over one percent but less than 10% through transfer reaction to acceptor) | + (a saccharide-transferred product was detected in an amount over one percent but less than 10% through transfer reaction to acceptor) | + (a saccharide-transferred product was detected in an amount over one percent but less than 10% through transfer reaction to acceptor) | + (a saccharide-transferred product was detected in an amount over one percent but less than 10% through transfer reaction to acceptor)
O=C[C@H](O)[C@@H](O)[C@H](O)CO [D-Xylose, D-xylose] | ++ (a saccharide-transferred product was detected in an amount over ten percent through transfer reaction to acceptor) | ++ (a saccharide-transferred product was detected in an amount over ten percent through transfer reaction to acceptor) | ++ (a saccharide-transferred product was detected in an amount over ten percent through transfer reaction to acceptor) | + (a saccharide-transferred product was detected in an amount over one percent but less than 10% through transfer reaction to acceptor)
C[C@@H](O)[C@H](O)[C@H](O)[C@@H](O)C=O [D-Fucose, D-fucose] | + (a saccharide-transferred product was detected in an amount over one percent but less than 10% through transfer reaction to acceptor) | + (a saccharide-transferred product was detected in an amount over one percent but less than 10% through transfer reaction to acceptor) | + (a saccharide-transferred product was detected in an amount over one percent but less than 10% through transfer reaction to acceptor) | ± (a saccharide-transferred product was detected in an amount less than one percent through transfer reaction to acceptor)
CO[C@@H]1O[C@H](CO)[C@@H](O)[C@H](O)[C@H]1O [Methyl-β-glucopyranoside, methyl-β-glucopyranoside] | ++ (a saccharide-transferred product was detected in an amount over ten percent through transfer reaction to acceptor) | ++ (a saccharide-transferred product was detected in an amount over ten percent through transfer reaction to acceptor) | ++ (a saccharide-transferred product was detected in an amount over ten percent through transfer reaction to acceptor) | ++ (a saccharide-transferred product was detected in an amount over ten percent through transfer reaction to acceptor)
O=C[C@H](O)[C@@H](O)[C@H](O)[C@H](O)CO [D-Glucose, D-glucose] | + (a saccharide-transferred product was detected in an amount over one percent but less than 10% through transfer reaction to acceptor) | + (a saccharide-transferred product was detected in an amount over one percent but less than 10% through transfer reaction to acceptor) | + (a saccharide-transferred product was detected in an amount over one percent but less than 10% through transfer reaction to acceptor) | + (a saccharide-transferred product was detected in an amount over one percent but less than 10% through transfer reaction to acceptor)
OC[C@@H](O)[C@@H](O)[C@H](O)[C@@H](O)CO [Sorbitol, sorbitol] | − | − | − | −
OC[C@H]1O[C@@H]2O[C@H]3[C@H](O)[C@@H](O)[C@@H](O[C@H]4[C@H](O)[C@@H](O)[C@@H](O[C@H]5[C@H](O)[C@@H](O)[C@@H](O[C@H]6[C@H](O)[C@@H](O)[C@@H](O[C@H]7[C@H](O)[C@@H](O)[C@@H](O[C@H]8[C@H](O)[C@@H](O)[C@@H](O[C@H]9[C@H](O)[C@@H](O)[C@@H](O[C@H]1[C@H](O)[C@H]2O)O[C@@H]9CO)O[C@@H]8CO)O[C@@H]7CO)O[C@@H]6CO)O[C@@H]5CO)O[C@@H]4CO)O[C@@H]3CO [γ-Cyclodextrin, γ-cyclodextrin] | − | − | − | −
O=C[C@@H](O)[C@H](O)[C@H](O)CO [D-Arabinose, D-arabinose] | ± (a saccharide-transferred product was detected in an amount less than one percent through transfer reaction to acceptor) | ± (a saccharide-transferred product was detected in an amount less than one percent through transfer reaction to acceptor) | ± (a saccharide-transferred product was detected in an amount less than one percent through transfer reaction to acceptor) | ± (a saccharide-transferred product was detected in an amount less than one percent through transfer reaction to acceptor)
OC[C@H]1O[C@@H]2O[C@H]3[C@H](O)[C@@H](O)[C@@H](O[C@H]4[C@H](O)[C@@H](O)[C@@H](O[C@H]5[C@H](O)[C@@H](O)[C@@H](O[C@H]6[C@H](O)[C@@H](O)[C@@H](O[C@H]7[C@H](O)[C@@H](O)[C@@H](O[C@H]1[C@H](O)[C@H]2O)O[C@@H]7CO)O[C@@H]6CO)O[C@@H]5CO)O[C@@H]4CO)O[C@@H]3CO [α-Cyclodextrin, α-cyclodextrin] | − | − | − | −

Source: patent US7592160B2, “Processes for producing isomaltose and isomaltitol and use thereof” (Kabushiki Kaisha Hayashibara Seibutsu Kagaku Kenkyujo, priority 2001, dated 2009)
